# According to PubChem BioAssay AID2060889 (Molecular Pharmacology Branch, DTP, NCI, 2025):
# pIC50: −log10 of the molar value.
# Test system: LG0567-F671-PDC complex spheroids viability
# Assay: Anticancer human tumor LG0567-F671-PDC patient-derived lung adenocarcinoma cell line growth inhibition [RAS]
# Conditions: for pIC50: curve of first compound; for viability, T/C: stronger effect = lower value
# In short: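 Multi-cell-type spheroids: tumor cells plus HUVEC endothelial cells and mesenchymal stem cells. RAS-pathway inhibitors were combined with targeted agents, each dosed in half-log steps down from clinical Cmax, or from 10 microM when Cmax was unknown.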
# [1] = second compound 0.000949 µM, first compound 0.00316 µM
# [2] = second compound 0.000949 µM, first compound 0.01 µM
# [3] = second compound 0.000949 µM, first compound 0.0316 µM
# [4] = second compound 0.000949 µM, first compound 0.1 µM
# [5] = second compound 0.000949 µM, first compound 0.316 µM
# [6] = second compound 0.000949 µM, first compound 1 µM
# [7] = second compound 0.003 µM, first compound 0.00316 µM
# [8] = second compound 0.003 µM, first compound 0.01 µM
# [9] = second compound 0.003 µM, first compound 0.0316 µM
# [10] = second compound 0.003 µM, first compound 0.1 µM
# [11] = second compound 0.003 µM, first compound 0.316 µM
# [12] = second compound 0.003 µM, first compound 1 µM
# [13] = second compound 0.00949 µM, first compound 0.00316 µM
# [14] = second compound 0.00949 µM, first compound 0.01 µM
# [15] = second compound 0.00949 µM, first compound 0.0316 µM
# [16] = second compound 0.00949 µM, first compound 0.1 µM
# [17] = second compound 0.00949 µM, first compound 0.316 µM
# [18] = second compound 0.00949 µM, first compound 1 µM
# [19] = second compound 0.03 µM, first compound 0.00316 µM
# [20] = second compound 0.03 µM, first compound 0.01 µM
# [21] = second compound 0.03 µM, first compound 0.0316 µM
# [22] = second compound 0.03 µM, first compound 0.1 µM
# [23] = second compound 0.03 µM, first compound 0.316 µM
# [24] = second compound 0.03 µM, first compound 1 µM
# [25] = second compound 0.0949 µM, first compound 0.00316 µM
# [26] = second compound 0.0949 µM, first compound 0.01 µM
# [27] = second compound 0.0949 µM, first compound 0.0316 µM
# [28] = second compound 0.0949 µM, first compound 0.1 µM
# [29] = second compound 0.0949 µM, first compound 0.316 µM
# [30] = second compound 0.0949 µM, first compound 1 µM
# [31] = second compound 0.3 µM, first compound 0.00316 µM
# [32] = second compound 0.3 µM, first compound 0.01 µM
# [33] = second compound 0.3 µM, first compound 0.0316 µM
# [34] = second compound 0.3 µM, first compound 0.1 µM
# [35] = second compound 0.3 µM, first compound 0.316 µM
# [36] = second compound 0.3 µM, first compound 1 µM
# 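Note: spheroids exposed to compound for seven days before readout.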
# 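Throughout, for pIC50: luminescence signal used as a proxy for viable cells.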
smiles,measurement,setting,value
C=CC(=O)N1CCN(c2nc(OCC3CCCN3C)nc3c(F)c(-c4nc(N)cc(C)c4C(F)(F)F)c(Cl)cc23)C(C)C1 (stereo unspecified) + CCn1c(-c2cc(N3CCN(C)CC3)cnc2C(C)OC)c2c3cc(ccc31)-c1csc(n1)CC(NC(=O)C1CC1C)C(=O)N1CCCC(N1)C(=O)OCC(C)(C)C2,pIC50,second compound 0.000949 µM,> 8.50
same,pIC50,second compound 0.003 µM,> 8.50
same,pIC50,second compound 0.00949 µM,> 8.50
same,pIC50,second compound 0.03 µM,> 8.50
same,pIC50,second compound 0.0949 µM,> 8.50
same,pIC50,second compound 0.3 µM,> 8.50
same,"viability, T/C",[1],9.35%
same,"viability, T/C",[2],9.1%
same,"viability, T/C",[3],8%
same,"viability, T/C",[4],8.66%
same,"viability, T/C",[5],7.95%
same,"viability, T/C",[6],7.17%
same,"viability, T/C",[7],5.52%
same,"viability, T/C",[8],6.02%
same,"viability, T/C",[9],5.86%
same,"viability, T/C",[10],7.54%
same,"viability, T/C",[11],7.84%
same,"viability, T/C",[12],6.72%
same,"viability, T/C",[13],5.09%
same,"viability, T/C",[14],4.57%
same,"viability, T/C",[15],5.64%
same,"viability, T/C",[16],4.78%
same,"viability, T/C",[17],5.6%
same,"viability, T/C",[18],4.86%
same,"viability, T/C",[19],3.64%
same,"viability, T/C",[20],3.58%
same,"viability, T/C",[21],3.59%
same,"viability, T/C",[22],3.48%
same,"viability, T/C",[23],4.15%
same,"viability, T/C",[24],3.55%
same,"viability, T/C",[25],3.37%
same,"viability, T/C",[26],3.02%
same,"viability, T/C",[27],2.73%
same,"viability, T/C",[28],2.71%
same,"viability, T/C",[29],2.59%
same,"viability, T/C",[30],3.04%
same,"viability, T/C",[31],2.73%
same,"viability, T/C",[32],2.79%
same,"viability, T/C",[33],2.44%
same,"viability, T/C",[34],2.81%
same,"viability, T/C",[35],2.66%
same,"viability, T/C",[36],2.96%
CC1(C)CCC(Nc2ncc(C(F)(F)F)c(-c3c[nH]c4c(P(C)(C)=O)c(C#N)ccc34)n2)CN1 (stereo unspecified) + CCn1c(-c2cc(N3CCN(C)CC3)cnc2C(C)OC)c2c3cc(ccc31)-c1csc(n1)CC(NC(=O)C1CC1C)C(=O)N1CCCC(N1)C(=O)OCC(C)(C)C2,pIC50,second compound 0.000949 µM,> 9.02
same,pIC50,second compound 0.003 µM,> 9.02
same,pIC50,second compound 0.00949 µM,> 9.02
same,pIC50,second compound 0.03 µM,> 9.02
same,pIC50,second compound 0.0949 µM,> 9.02
same,pIC50,second compound 0.3 µM,> 9.02
same,"viability, T/C","second compound 0.000949 µM, first compound 0.000949 µM",18.6%
same,"viability, T/C","second compound 0.000949 µM, first compound 0.003 µM",17.4%
same,"viability, T/C","second compound 0.000949 µM, first compound 0.00949 µM",15.6%
same,"viability, T/C","second compound 0.000949 µM, first compound 0.03 µM",18.6%
same,"viability, T/C","second compound 0.000949 µM, first compound 0.0949 µM",19.4%
same,"viability, T/C","second compound 0.000949 µM, first compound 0.3 µM",20.3%
same,"viability, T/C","second compound 0.003 µM, first compound 0.000949 µM",9.04%
same,"viability, T/C","second compound 0.003 µM, first compound 0.003 µM",8.93%
same,"viability, T/C","second compound 0.003 µM, first compound 0.00949 µM",9.61%
same,"viability, T/C","second compound 0.003 µM, first compound 0.03 µM",8.68%
same,"viability, T/C","second compound 0.003 µM, first compound 0.0949 µM",10.7%
same,"viability, T/C","second compound 0.003 µM, first compound 0.3 µM",11.1%
same,"viability, T/C","second compound 0.00949 µM, first compound 0.000949 µM",5.65%
same,"viability, T/C","second compound 0.00949 µM, first compound 0.003 µM",5.79%
same,"viability, T/C","second compound 0.00949 µM, first compound 0.00949 µM",5.79%
same,"viability, T/C","second compound 0.00949 µM, first compound 0.03 µM",6.44%
same,"viability, T/C","second compound 0.00949 µM, first compound 0.0949 µM",6.98%
same,"viability, T/C","second compound 0.00949 µM, first compound 0.3 µM",7.15%
same,"viability, T/C","second compound 0.03 µM, first compound 0.000949 µM",4.09%
same,"viability, T/C","second compound 0.03 µM, first compound 0.003 µM",4.19%
same,"viability, T/C","second compound 0.03 µM, first compound 0.00949 µM",4.86%
same,"viability, T/C","second compound 0.03 µM, first compound 0.03 µM",4.81%
same,"viability, T/C","second compound 0.03 µM, first compound 0.0949 µM",5.36%
same,"viability, T/C","second compound 0.03 µM, first compound 0.3 µM",5.18%
same,"viability, T/C","second compound 0.0949 µM, first compound 0.000949 µM",2.85%
same,"viability, T/C","second compound 0.0949 µM, first compound 0.003 µM",3.65%
same,"viability, T/C","second compound 0.0949 µM, first compound 0.00949 µM",4.21%
same,"viability, T/C","second compound 0.0949 µM, first compound 0.03 µM",4.25%
same,"viability, T/C","second compound 0.0949 µM, first compound 0.0949 µM",4.38%
same,"viability, T/C","second compound 0.0949 µM, first compound 0.3 µM",4.66%
same,"viability, T/C","second compound 0.3 µM, first compound 0.000949 µM",2.87%
same,"viability, T/C","second compound 0.3 µM, first compound 0.003 µM",2.91%
same,"viability, T/C","second compound 0.3 µM, first compound 0.00949 µM",3.44%
same,"viability, T/C","second compound 0.3 µM, first compound 0.03 µM",3.64%
same,"viability, T/C","second compound 0.3 µM, first compound 0.0949 µM",4.02%
same,"viability, T/C","second compound 0.3 µM, first compound 0.3 µM",3.88%
C=CC(=O)Nc1cc(Nc2nccc(-c3cn(C)c4ccccc34)n2)c(OC)cc1N(C)CCN(C)C + CCn1c(-c2cccnc2C(C)OC)c2c3cc(ccc31)N1CCOC(CC(NC(=O)C(C(C)C)N(C)C(=O)C3(F)CCN(C(=O)C#CC(C)(C)N(C)C)CC3)C(=O)N3CCCC(N3)C(=O)OCC(C)(C)C2)C1,pIC50,second compound 0.000949 µM,> 8.50
same,pIC50,second compound 0.003 µM,> 8.50
same,pIC50,second compound 0.00949 µM,> 8.50
same,pIC50,second compound 0.03 µM,> 8.50
same,pIC50,second compound 0.0949 µM,> 8.50
same,pIC50,second compound 0.3 µM,> 8.50
same,"viability, T/C",[1],15.6%
same,"viability, T/C",[2],14%
same,"viability, T/C",[3],12.5%
same,"viability, T/C",[4],9.48%
same,"viability, T/C",[5],14.1%
same,"viability, T/C",[6],3.07%
same,"viability, T/C",[7],13.4%
same,"viability, T/C",[8],13.9%
same,"viability, T/C",[9],13%
same,"viability, T/C",[10],9.78%
same,"viability, T/C",[11],6.6%
same,"viability, T/C",[12],2.75%
same,"viability, T/C",[13],20%
same,"viability, T/C",[14],12.7%
same,"viability, T/C",[15],11.6%
same,"viability, T/C",[16],9.64%
same,"viability, T/C",[17],6.15%
same,"viability, T/C",[18],7.2%
same,"viability, T/C",[19],12%
same,"viability, T/C",[20],11.5%
same,"viability, T/C",[21],11.2%
same,"viability, T/C",[22],7.87%
same,"viability, T/C",[23],5.56%
same,"viability, T/C",[24],3.05%
same,"viability, T/C",[25],10.1%
same,"viability, T/C",[26],10.9%
same,"viability, T/C",[27],10.2%
same,"viability, T/C",[28],9.54%
same,"viability, T/C",[29],5.79%
same,"viability, T/C",[30],2.57%
same,"viability, T/C",[31],12.4%
same,"viability, T/C",[32],7.87%
same,"viability, T/C",[33],7.46%
same,"viability, T/C",[34],5.58%
same,"viability, T/C",[35],3.92%
same,"viability, T/C",[36],2.38%
